In patent publication US20080280837A1, “Biologically Active Compounds with Anti-Angiogenic Properties” (priority 2004, published 2008):

What follows are molecules tested against T1, Human SST5 somatostatin receptor (SSTR5) (Homo sapiens, UniProt P35346) (assay: Filter plate assay for SST5 receptor, displacement of [125I]SST-14). Settings: 0.5 uM.
T1 construct: expressed in transfected cells; host or cells: HEK-293 EBNA
Type: binding
Outline: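 HEK-293 EBNA membranes expressing human SST5 (5.5 μg) incubated 60 min at 25 °C with 4 nM [125I]SST-14 and compound in pH 7.5 Tris/EGTA/MgCl2/sucrose buffer. Bound radioactivity collected on PEI-coated glass fiber filters and counted; triplicate 1:5 dilution series from 125 μM, non-specific binding with excess cold ligand.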

T1 sequence (P35346 whole entry): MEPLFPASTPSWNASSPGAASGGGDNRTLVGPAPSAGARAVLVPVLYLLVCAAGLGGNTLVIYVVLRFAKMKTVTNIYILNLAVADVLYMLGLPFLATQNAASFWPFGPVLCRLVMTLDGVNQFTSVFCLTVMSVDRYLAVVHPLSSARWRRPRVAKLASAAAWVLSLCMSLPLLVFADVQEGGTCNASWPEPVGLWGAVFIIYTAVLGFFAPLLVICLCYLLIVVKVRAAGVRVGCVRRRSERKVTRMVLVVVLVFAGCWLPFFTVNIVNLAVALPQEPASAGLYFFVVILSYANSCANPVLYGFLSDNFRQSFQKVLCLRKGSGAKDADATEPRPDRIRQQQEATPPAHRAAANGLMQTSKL

For `COC1C(O)C(COCc2ccc3ccccc3c2)OC(OCCc2ccccc2)C1NC(=O)CCCN` (centres unmarked) [Compound 140], which “SSTR5 Inhib 0.5 uM % (inhibition of binding of SST-14 to SSTR5)” value (from here on “SSTR5 Inhib 0.5 uM %”) is on record?
The value was 38%.

For `COC1C(O)C(COCc2ccc(Cl)cc2)OC(OCCc2ccccc2)C1NC(=O)CCCN` (centres unmarked) [Compound 141], which “SSTR5 Inhib 0.5 uM %” value is on record?
Its value is 36%.

`CSC1O[C@H](COCc2ccc(Cl)cc2)[C@@H](O)[C@@H](OCc2ccccc2)[C@H]1NC(=O)CCNC(=N)N` (some centres unmarked) [Compound 142] was tested. Which “SSTR5 Inhib 0.5 uM %” value did it give?
The value was 44%.

For `CO[C@H]1[C@H](O)[C@@H](COCc2ccc(Cl)cc2)OC(OCc2ccc3ccccc3c2)[C@@H]1NC(=O)CCCN` (some centres unmarked) [Compound 143], which “SSTR5 Inhib 0.5 uM %” value is on record?
Its value is 35%.

`COC[C@H]1OC(OCc2ccccc2)[C@H](NC(=O)CCCN)[C@@H](OCc2cccc(O)c2)[C@@H]1O` (some centres unmarked) [Compound 144] was tested. Which “SSTR5 Inhib 0.5 uM %” value did it give?
Its value is 45%.

With `COC[C@H]1OC(OCCc2ccccc2)[C@H](NC(=O)CCCN)[C@@H](OCc2ccc(Cl)cc2)[C@@H]1O` (some centres unmarked) [Compound 145] as the molecule, how does the “SSTR5 Inhib 0.5 uM %” value read?
The value was 45%.

Which “SSTR5 Inhib 0.5 uM %” value does the source give for `COC[C@H]1OC(OCc2ccc3ccccc3c2)[C@H](NC(=O)CCCN)[C@@H](OCc2cccc(O)c2)[C@@H]1O` (some centres unmarked) [Compound 146] here?
The value was 40%.

How did the “SSTR5 Inhib 0.5 uM %” value turn out when `COC[C@H]1OC(OCCc2ccccc2)[C@H](NC(=O)CCCN)[C@@H](OCc2cccc(O)c2)[C@@H]1O` (some centres unmarked) [Compound 147] was run?
Its value is 40%.

With `CSC1O[C@H](COCc2ccc(-c3ccccc3)cc2)[C@@H](O)[C@@H](OCc2ccc(Cl)cc2)[C@H]1NC(=O)CCCN` (some centres unmarked) [Compound 148] as the molecule, how does the “SSTR5 Inhib 0.5 uM %” value read?
The value was 38%.

How did the “SSTR5 Inhib 0.5 uM %” value turn out when `CSC1O[C@H](COCc2ccccc2)[C@@H](O)[C@@H](OCc2ccc(-c3ccccc3)cc2)[C@H]1NC(=O)CNC(=N)N` (some centres unmarked) [Compound 149] was run?
Its value is 35%.

`CSC1O[C@H](COCc2ccc(Cl)cc2)[C@@H](O)[C@@H](OCc2ccc3ccccc3c2)[C@H]1NC(=O)CNC(=N)N` (some centres unmarked) [Compound 150] was tested. Which “SSTR5 Inhib 0.5 uM %” value did it give?
The value was 42%.

How did the “SSTR5 Inhib 0.5 uM %” value turn out when `COC[C@H]1OC(OCc2ccc3ccccc3c2)[C@H](NC(=O)CCNC(=N)N)[C@@H](OCc2ccc3ccccc3c2)[C@@H]1O` (some centres unmarked) [Compound 151] was run?
Its value is 36%.

How did the “SSTR5 Inhib 0.5 uM %” value turn out when `CO[C@H]1[C@H](O)[C@@H](COCc2ccc(Cl)cc2)OC(OCc2ccc(Cl)cc2)[C@@H]1NC(=O)CCNC(=N)N` (some centres unmarked) [Compound 152] was run?
The value was 47%.

How did the “SSTR5 Inhib 0.5 uM %” value turn out when `CSC1O[C@H](COCc2ccc(Cl)cc2)[C@@H](O)[C@@H](OCc2ccc3ccccc3c2)[C@H]1NC(=O)CCCN` (some centres unmarked) [Compound 153] was run?
The value was 34%.

How did the “SSTR5 Inhib 0.5 uM %” value turn out when `COC[C@H]1OC(OCc2ccccc2)[C@H](NC(=O)CCCN)[C@H](OCc2ccccc2)[C@@H]1O` (some centres unmarked) [Compound 154] was run?
The value was 33%.

For `CSC1O[C@H](COCc2ccccc2)[C@@H](O)[C@@H](OCc2ccc(-c3ccccc3)cc2)[C@H]1NC(=O)CCCNC(=N)N` (some centres unmarked) [Compound 155], which “SSTR5 Inhib 0.5 uM %” value is on record?
The value was 46%.

`CSC1O[C@H](COCc2ccccc2)[C@@H](O)[C@@H](OCc2ccc3ccccc3c2)[C@H]1NC(=O)CCCN` (some centres unmarked) [Compound 156] was tested. Which “SSTR5 Inhib 0.5 uM %” value did it give?
Its value is 25%.

For `CO[C@H]1[C@H](O)[C@@H](COCc2ccc(-c3ccccc3)cc2)OC(OCc2ccc(-c3ccccc3)cc2)[C@@H]1NC(=O)CCCNC(=N)N` (some centres unmarked) [Compound 157], which “SSTR5 Inhib 0.5 uM %” value is on record?
The value was 20%.

Which “SSTR5 Inhib 0.5 uM %” value does the source give for `CSC1O[C@H](COCc2ccc3ccccc3c2)[C@@H](O)[C@@H](OCc2ccc(Cl)cc2)[C@H]1NC(=O)CCN` (some centres unmarked) [Compound 158] here?
Its value is 36%.

Same assay, conditions: 10 uM

Which “SSTR5 Inhib 10 uM % (inhibition of binding of SST-14 to SSTR5)” value (shortened to “SSTR5 Inhib 10 uM %”) does the source give for `COC1C(O)C(COCc2ccc3ccccc3c2)OC(OCCc2ccccc2)C1NC(=O)CCCN` (centres unmarked) [Compound 140] here?
Its value is 78%.

For `COC1C(O)C(COCc2ccc(Cl)cc2)OC(OCCc2ccccc2)C1NC(=O)CCCN` (centres unmarked) [Compound 141], which “SSTR5 Inhib 10 uM %” value is on record?
Its value is 78%.

How did the “SSTR5 Inhib 10 uM %” value turn out when `CSC1O[C@H](COCc2ccc(Cl)cc2)[C@@H](O)[C@@H](OCc2ccccc2)[C@H]1NC(=O)CCNC(=N)N` (some centres unmarked) [Compound 142] was run?
Its value is 78%.

For `CO[C@H]1[C@H](O)[C@@H](COCc2ccc(Cl)cc2)OC(OCc2ccc3ccccc3c2)[C@@H]1NC(=O)CCCN` (some centres unmarked) [Compound 143], which “SSTR5 Inhib 10 uM %” value is on record?
Its value is 78%.

How did the “SSTR5 Inhib 10 uM %” value turn out when `COC[C@H]1OC(OCc2ccccc2)[C@H](NC(=O)CCCN)[C@@H](OCc2cccc(O)c2)[C@@H]1O` (some centres unmarked) [Compound 144] was run?
The value was 78%.

How did the “SSTR5 Inhib 10 uM %” value turn out when `COC[C@H]1OC(OCCc2ccccc2)[C@H](NC(=O)CCCN)[C@@H](OCc2ccc(Cl)cc2)[C@@H]1O` (some centres unmarked) [Compound 145] was run?
The value was 78%.

`COC[C@H]1OC(OCc2ccc3ccccc3c2)[C@H](NC(=O)CCCN)[C@@H](OCc2cccc(O)c2)[C@@H]1O` (some centres unmarked) [Compound 146] was tested. Which “SSTR5 Inhib 10 uM %” value did it give?
Its value is 77%.

With `COC[C@H]1OC(OCCc2ccccc2)[C@H](NC(=O)CCCN)[C@@H](OCc2cccc(O)c2)[C@@H]1O` (some centres unmarked) [Compound 147] as the molecule, how does the “SSTR5 Inhib 10 uM %” value read?
Its value is 77%.

Which “SSTR5 Inhib 10 uM %” value does the source give for `CSC1O[C@H](COCc2ccc(-c3ccccc3)cc2)[C@@H](O)[C@@H](OCc2ccc(Cl)cc2)[C@H]1NC(=O)CCCN` (some centres unmarked) [Compound 148] here?
Its value is 76%.

How did the “SSTR5 Inhib 10 uM %” value turn out when `CSC1O[C@H](COCc2ccccc2)[C@@H](O)[C@@H](OCc2ccc(-c3ccccc3)cc2)[C@H]1NC(=O)CNC(=N)N` (some centres unmarked) [Compound 149] was run?
Its value is 76%.

With `CSC1O[C@H](COCc2ccc(Cl)cc2)[C@@H](O)[C@@H](OCc2ccc3ccccc3c2)[C@H]1NC(=O)CNC(=N)N` (some centres unmarked) [Compound 150] as the molecule, how does the “SSTR5 Inhib 10 uM %” value read?
The value was 76%.

How did the “SSTR5 Inhib 10 uM %” value turn out when `COC[C@H]1OC(OCc2ccc3ccccc3c2)[C@H](NC(=O)CCNC(=N)N)[C@@H](OCc2ccc3ccccc3c2)[C@@H]1O` (some centres unmarked) [Compound 151] was run?
Its value is 76%.

For `CO[C@H]1[C@H](O)[C@@H](COCc2ccc(Cl)cc2)OC(OCc2ccc(Cl)cc2)[C@@H]1NC(=O)CCNC(=N)N` (some centres unmarked) [Compound 152], which “SSTR5 Inhib 10 uM %” value is on record?
The value was 76%.

`CSC1O[C@H](COCc2ccc(Cl)cc2)[C@@H](O)[C@@H](OCc2ccc3ccccc3c2)[C@H]1NC(=O)CCCN` (some centres unmarked) [Compound 153] was tested. Which “SSTR5 Inhib 10 uM %” value did it give?
Its value is 76%.

How did the “SSTR5 Inhib 10 uM %” value turn out when `COC[C@H]1OC(OCc2ccccc2)[C@H](NC(=O)CCCN)[C@H](OCc2ccccc2)[C@@H]1O` (some centres unmarked) [Compound 154] was run?
The value was 76%.

Which “SSTR5 Inhib 10 uM %” value does the source give for `CSC1O[C@H](COCc2ccccc2)[C@@H](O)[C@@H](OCc2ccc(-c3ccccc3)cc2)[C@H]1NC(=O)CCCNC(=N)N` (some centres unmarked) [Compound 155] here?
The value was 76%.

With `CSC1O[C@H](COCc2ccccc2)[C@@H](O)[C@@H](OCc2ccc3ccccc3c2)[C@H]1NC(=O)CCCN` (some centres unmarked) [Compound 156] as the molecule, how does the “SSTR5 Inhib 10 uM %” value read?
Its value is 76%.

With `CO[C@H]1[C@H](O)[C@@H](COCc2ccc(-c3ccccc3)cc2)OC(OCc2ccc(-c3ccccc3)cc2)[C@@H]1NC(=O)CCCNC(=N)N` (some centres unmarked) [Compound 157] as the molecule, how does the “SSTR5 Inhib 10 uM %” value read?
Its value is 75%.

How did the “SSTR5 Inhib 10 uM %” value turn out when `CSC1O[C@H](COCc2ccc3ccccc3c2)[C@@H](O)[C@@H](OCc2ccc(Cl)cc2)[C@H]1NC(=O)CCN` (some centres unmarked) [Compound 158] was run?
Its value is 75%.
